According to paper PMC11480411, “Mucosal sugars delineate pyrazine vs pyrazinone autoinducer signaling in Klebsiella oxytoca” (Nature Communications, 2024):
Values joined by “and” are separate entries in the source; they are usually repeats but may differ in a detail not shown here. Identical values can stand only once.

What was measured:
Assay type in all cases: cell-based
[1] = target: T1, F2RL2 (Homo sapiens, UniProt O00254); test: PRESTO-Tango GPCR screen; settings: 100 µM
T1 construct: purchased PRESTO-Tango GPCR kit (Roth lab / Addgene)
In short: (§1)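 In this arrestin-recruitment reporter assay, HEK293-derived HTLA cells expressing a transfected receptor-Tango fusion are treated for 20 h with compound at a final 100 μM. Luciferase output is quantified with Bright-Glo and reported relative to PBS.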

[2] = target: T2, CCR7 (Homo sapiens, UniProt P32248); test: PRESTO-Tango GPCR screen; settings: 100 µM
T2 construct: purchased PRESTO-Tango GPCR kit (Roth lab / Addgene)
T2 sequence (P32248 25-378): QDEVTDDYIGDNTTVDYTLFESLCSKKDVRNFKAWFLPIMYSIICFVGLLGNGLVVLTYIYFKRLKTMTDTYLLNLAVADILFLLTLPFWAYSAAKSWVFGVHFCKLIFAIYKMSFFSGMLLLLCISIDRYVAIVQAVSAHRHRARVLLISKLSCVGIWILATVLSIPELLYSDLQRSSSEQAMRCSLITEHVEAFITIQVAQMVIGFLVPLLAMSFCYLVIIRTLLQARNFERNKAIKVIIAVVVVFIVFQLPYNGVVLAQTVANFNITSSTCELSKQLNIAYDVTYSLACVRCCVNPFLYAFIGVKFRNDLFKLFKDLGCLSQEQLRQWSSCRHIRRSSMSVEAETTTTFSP
In short: as §1

[3] = target: T3, HTR5 (Homo sapiens, UniProt P47898); test: PRESTO-Tango GPCR screen; settings: 100 µM
T3 construct: purchased PRESTO-Tango GPCR kit (Roth lab / Addgene)
T3 sequence (P47898 whole entry): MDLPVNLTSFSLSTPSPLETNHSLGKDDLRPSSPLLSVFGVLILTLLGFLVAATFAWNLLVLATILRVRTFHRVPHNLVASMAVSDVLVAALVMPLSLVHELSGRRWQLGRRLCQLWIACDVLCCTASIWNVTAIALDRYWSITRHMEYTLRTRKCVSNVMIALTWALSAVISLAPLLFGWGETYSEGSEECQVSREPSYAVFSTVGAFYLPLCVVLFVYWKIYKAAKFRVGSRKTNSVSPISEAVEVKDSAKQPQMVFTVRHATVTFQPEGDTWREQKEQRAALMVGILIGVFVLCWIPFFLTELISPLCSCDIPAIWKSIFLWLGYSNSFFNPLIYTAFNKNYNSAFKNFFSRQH
In short: as §1

[4] = target: T4, HTR7 (Homo sapiens, UniProt P34969); test: PRESTO-Tango GPCR screen; settings: 100 µM
T4 construct: purchased PRESTO-Tango GPCR kit (Roth lab / Addgene)
In short: as §1

[5] = target: T5, OPRK1 (Homo sapiens, UniProt P41145); test: PRESTO-Tango GPCR screen; settings: 100 µM
T5 construct: purchased PRESTO-Tango GPCR kit (Roth lab / Addgene)
In short: as §1

[6] = target: T6, HCA2 (Homo sapiens, UniProt Q8TDS4); test: PRESTO-Tango GPCR screen; settings: 100 µM
T6 construct: purchased PRESTO-Tango GPCR kit (Roth lab / Addgene)
T6 sequence (Q8TDS4 whole entry): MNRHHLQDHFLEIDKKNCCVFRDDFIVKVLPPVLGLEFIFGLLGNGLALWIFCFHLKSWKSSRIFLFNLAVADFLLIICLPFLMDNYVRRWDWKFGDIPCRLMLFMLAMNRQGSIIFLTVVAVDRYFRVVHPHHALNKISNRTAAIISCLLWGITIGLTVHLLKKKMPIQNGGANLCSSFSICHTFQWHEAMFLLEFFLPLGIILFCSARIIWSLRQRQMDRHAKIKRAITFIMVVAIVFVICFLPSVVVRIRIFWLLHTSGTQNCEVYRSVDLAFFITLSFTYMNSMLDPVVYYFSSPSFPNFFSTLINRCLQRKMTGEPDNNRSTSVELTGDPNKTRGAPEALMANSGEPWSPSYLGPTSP
In short: as §1

[7] = target: T7, GPRC6A (Homo sapiens, UniProt Q5T6X5); test: PRESTO-Tango GPCR screen; settings: 100 µM
T7 construct: purchased PRESTO-Tango GPCR kit (Roth lab / Addgene)
T7 sequence (Q5T6X5 19-926): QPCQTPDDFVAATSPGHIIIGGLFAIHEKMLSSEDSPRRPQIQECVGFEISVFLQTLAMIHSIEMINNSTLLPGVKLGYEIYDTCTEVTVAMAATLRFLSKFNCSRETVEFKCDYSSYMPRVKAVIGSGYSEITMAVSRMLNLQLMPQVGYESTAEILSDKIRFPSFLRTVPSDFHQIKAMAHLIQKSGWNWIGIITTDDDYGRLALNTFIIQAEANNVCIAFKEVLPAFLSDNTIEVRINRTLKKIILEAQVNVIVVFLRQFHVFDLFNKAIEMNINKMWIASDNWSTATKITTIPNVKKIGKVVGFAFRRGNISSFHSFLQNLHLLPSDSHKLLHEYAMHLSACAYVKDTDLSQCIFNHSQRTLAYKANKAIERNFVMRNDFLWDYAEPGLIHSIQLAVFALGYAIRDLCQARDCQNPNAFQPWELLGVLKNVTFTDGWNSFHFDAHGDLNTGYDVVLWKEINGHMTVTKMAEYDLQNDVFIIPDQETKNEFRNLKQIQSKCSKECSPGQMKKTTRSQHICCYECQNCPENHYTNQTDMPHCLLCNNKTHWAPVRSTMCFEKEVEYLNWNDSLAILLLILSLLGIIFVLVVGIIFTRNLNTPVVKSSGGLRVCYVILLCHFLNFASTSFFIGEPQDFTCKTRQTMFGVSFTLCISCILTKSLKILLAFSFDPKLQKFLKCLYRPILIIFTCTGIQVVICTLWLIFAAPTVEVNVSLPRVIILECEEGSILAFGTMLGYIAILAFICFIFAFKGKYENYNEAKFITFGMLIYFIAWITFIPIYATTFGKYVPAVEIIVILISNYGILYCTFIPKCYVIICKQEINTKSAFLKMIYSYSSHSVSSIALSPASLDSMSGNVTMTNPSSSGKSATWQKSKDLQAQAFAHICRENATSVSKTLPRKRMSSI
In short: as §1

[8] = target: T8, PRRP (Homo sapiens, UniProt P49683); test: PRESTO-Tango GPCR screen; settings: 100 µM
T8 construct: purchased PRESTO-Tango GPCR kit (Roth lab / Addgene)
In short: as §1

[9] = target: T9, MC5R (Homo sapiens, UniProt P33032); test: PRESTO-Tango GPCR screen; settings: 100 µM
T9 construct: purchased PRESTO-Tango GPCR kit (Roth lab / Addgene)
In short: as §1

[10] = target: T10, FFA1 (Homo sapiens, UniProt O14842); test: PRESTO-Tango GPCR screen; settings: 100 µM
T10 construct: purchased PRESTO-Tango GPCR kit (Roth lab / Addgene)
T10 sequence (O14842 whole entry): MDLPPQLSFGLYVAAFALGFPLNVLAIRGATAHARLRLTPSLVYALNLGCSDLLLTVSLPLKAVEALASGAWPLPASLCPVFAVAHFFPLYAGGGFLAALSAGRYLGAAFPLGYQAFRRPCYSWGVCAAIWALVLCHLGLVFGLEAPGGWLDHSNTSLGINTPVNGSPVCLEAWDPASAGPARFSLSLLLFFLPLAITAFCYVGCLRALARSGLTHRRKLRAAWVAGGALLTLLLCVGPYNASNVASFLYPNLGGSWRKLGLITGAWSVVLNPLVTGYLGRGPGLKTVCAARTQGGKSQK
In short: as §1

[11] = target: T11, CYSLTR2 (Homo sapiens, UniProt Q9NS75); test: PRESTO-Tango GPCR screen; settings: 100 µM
T11 construct: purchased PRESTO-Tango GPCR kit (Roth lab / Addgene)
In short: as §1

[12] = target: T12, SCTR (Homo sapiens, UniProt P47872); test: PRESTO-Tango GPCR screen; settings: 100 µM
T12 construct: purchased PRESTO-Tango GPCR kit (Roth lab / Addgene)
T12 sequence (P47872 23-440): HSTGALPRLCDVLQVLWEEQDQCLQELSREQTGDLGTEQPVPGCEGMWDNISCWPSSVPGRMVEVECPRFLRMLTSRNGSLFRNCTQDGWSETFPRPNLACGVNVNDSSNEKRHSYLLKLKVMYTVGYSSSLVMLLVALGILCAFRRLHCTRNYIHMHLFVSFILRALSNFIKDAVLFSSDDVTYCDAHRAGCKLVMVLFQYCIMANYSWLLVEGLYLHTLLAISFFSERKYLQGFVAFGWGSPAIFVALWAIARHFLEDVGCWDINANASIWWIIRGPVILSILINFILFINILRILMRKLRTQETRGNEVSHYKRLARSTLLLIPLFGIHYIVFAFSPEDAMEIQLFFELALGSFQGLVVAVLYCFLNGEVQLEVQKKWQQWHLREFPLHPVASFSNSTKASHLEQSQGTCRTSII
In short: as §1

[13] = target: T13, ADRA1D (Homo sapiens, UniProt P25100); test: PRESTO-Tango GPCR screen; settings: 100 µM
T13 construct: purchased PRESTO-Tango GPCR kit (Roth lab / Addgene)
In short: as §1

[14] = target: T14, BB3 (Homo sapiens, UniProt P32247); test: PRESTO-Tango GPCR screen; settings: 100 µM
T14 construct: purchased PRESTO-Tango GPCR kit (Roth lab / Addgene)
In short: as §1

[15] = target: T15, GPR151 (Homo sapiens, UniProt Q8TDV0); test: PRESTO-Tango GPCR screen; settings: 100 µM
T15 construct: purchased PRESTO-Tango GPCR kit (Roth lab / Addgene)
T15 sequence (Q8TDV0 whole entry): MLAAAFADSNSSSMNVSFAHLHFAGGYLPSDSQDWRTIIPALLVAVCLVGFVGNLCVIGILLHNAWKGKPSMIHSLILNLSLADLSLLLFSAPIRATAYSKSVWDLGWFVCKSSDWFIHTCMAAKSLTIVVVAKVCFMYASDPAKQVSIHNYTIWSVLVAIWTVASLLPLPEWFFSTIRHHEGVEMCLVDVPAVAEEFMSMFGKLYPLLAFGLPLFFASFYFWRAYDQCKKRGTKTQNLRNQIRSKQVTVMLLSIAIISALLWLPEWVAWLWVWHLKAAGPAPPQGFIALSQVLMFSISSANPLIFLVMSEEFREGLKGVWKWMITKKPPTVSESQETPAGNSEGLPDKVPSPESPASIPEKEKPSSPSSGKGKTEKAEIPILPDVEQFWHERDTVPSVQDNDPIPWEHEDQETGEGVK
In short: as §1

[16] = target: T16, GPR142 (Homo sapiens, UniProt Q7Z601); test: PRESTO-Tango GPCR screen; settings: 100 µM
T16 construct: purchased PRESTO-Tango GPCR kit (Roth lab / Addgene)
T16 sequence (Q7Z601 whole entry): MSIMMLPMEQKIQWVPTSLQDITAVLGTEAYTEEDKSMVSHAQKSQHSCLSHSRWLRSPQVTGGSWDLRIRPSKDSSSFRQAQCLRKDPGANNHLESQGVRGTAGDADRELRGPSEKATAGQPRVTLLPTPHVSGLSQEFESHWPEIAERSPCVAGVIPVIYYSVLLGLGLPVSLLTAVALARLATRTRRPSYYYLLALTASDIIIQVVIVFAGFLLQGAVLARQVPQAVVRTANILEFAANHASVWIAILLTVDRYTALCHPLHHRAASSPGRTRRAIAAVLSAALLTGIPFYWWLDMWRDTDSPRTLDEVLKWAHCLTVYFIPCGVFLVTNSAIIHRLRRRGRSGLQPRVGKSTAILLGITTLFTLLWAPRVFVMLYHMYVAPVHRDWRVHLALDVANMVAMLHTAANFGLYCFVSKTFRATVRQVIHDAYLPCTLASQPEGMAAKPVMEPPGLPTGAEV
In short: as §1

[17] = target: T17, FSHR (Homo sapiens, UniProt P23945); test: PRESTO-Tango GPCR screen; settings: 100 µM
T17 construct: purchased PRESTO-Tango GPCR kit (Roth lab / Addgene)
T17 sequence (P23945 18-695): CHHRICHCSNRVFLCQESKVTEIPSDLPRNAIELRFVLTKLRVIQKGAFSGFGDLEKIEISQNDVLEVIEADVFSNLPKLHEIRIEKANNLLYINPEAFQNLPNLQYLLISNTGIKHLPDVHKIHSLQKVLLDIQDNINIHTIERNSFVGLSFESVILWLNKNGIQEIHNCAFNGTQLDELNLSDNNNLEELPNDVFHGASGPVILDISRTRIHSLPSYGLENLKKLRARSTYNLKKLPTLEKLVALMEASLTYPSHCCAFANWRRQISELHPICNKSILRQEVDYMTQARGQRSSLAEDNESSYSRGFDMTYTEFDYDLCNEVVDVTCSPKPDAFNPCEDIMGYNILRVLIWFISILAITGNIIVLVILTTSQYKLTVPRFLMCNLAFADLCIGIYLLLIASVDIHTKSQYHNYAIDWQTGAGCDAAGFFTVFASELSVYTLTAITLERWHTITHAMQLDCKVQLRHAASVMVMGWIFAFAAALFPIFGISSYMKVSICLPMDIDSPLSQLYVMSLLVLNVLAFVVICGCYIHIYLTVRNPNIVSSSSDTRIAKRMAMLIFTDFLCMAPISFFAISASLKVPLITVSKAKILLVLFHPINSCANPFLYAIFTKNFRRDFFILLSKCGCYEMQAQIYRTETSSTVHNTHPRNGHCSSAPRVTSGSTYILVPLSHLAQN
In short: as §1

[18] = target: T18, FPR3 (Homo sapiens, UniProt P25089); test: PRESTO-Tango GPCR screen; settings: 100 µM
T18 construct: purchased PRESTO-Tango GPCR kit (Roth lab / Addgene)
In short: as §1

[19] = target: T19, PK1 (Homo sapiens, UniProt Q8TCW9); test: PRESTO-Tango GPCR screen; settings: 100 µM
T19 construct: purchased PRESTO-Tango GPCR kit (Roth lab / Addgene)
In short: as §1

[20] = target: T20, GPR88 (Homo sapiens, UniProt Q9GZN0); test: PRESTO-Tango GPCR screen; settings: 100 µM
T20 construct: purchased PRESTO-Tango GPCR kit (Roth lab / Addgene)
In short: as §1

[21] = target: T21, AGTR2 (Homo sapiens, UniProt P50052); test: PRESTO-Tango GPCR screen; settings: 100 µM
T21 construct: purchased PRESTO-Tango GPCR kit (Roth lab / Addgene)
In short: as §1

[22] = target: T22, BDKBR2 (Homo sapiens, UniProt P30411); test: PRESTO-Tango GPCR screen; settings: 100 µM
T22 construct: purchased PRESTO-Tango GPCR kit (Roth lab / Addgene)
In short: as §1

[23] = target: T23, SSTR4 (Homo sapiens, UniProt P31391); test: PRESTO-Tango GPCR screen; settings: 100 µM
T23 construct: purchased PRESTO-Tango GPCR kit (Roth lab / Addgene)
In short: as §1

[24] = target: T24, NPBW2 (Homo sapiens, UniProt P48146); test: PRESTO-Tango GPCR screen; settings: 100 µM
T24 construct: purchased PRESTO-Tango GPCR kit (Roth lab / Addgene)
In short: as §1

[25] = target: T25, GPR68 (Homo sapiens, UniProt Q15743); test: PRESTO-Tango GPCR screen; settings: 100 µM
T25 construct: purchased PRESTO-Tango GPCR kit (Roth lab / Addgene)
In short: as §1

[26] = target: T26, EDNRA (Homo sapiens, UniProt P25101); test: PRESTO-Tango GPCR screen; settings: 100 µM
T26 construct: purchased PRESTO-Tango GPCR kit (Roth lab / Addgene)
In short: as §1

[27] = target: T27, TACR1 (Homo sapiens, UniProt P25103); test: PRESTO-Tango GPCR screen; settings: 100 µM
T27 construct: purchased PRESTO-Tango GPCR kit (Roth lab / Addgene)
In short: as §1

[28] = target: T28, MAS1 (Homo sapiens, UniProt P04201); test: PRESTO-Tango GPCR screen; settings: 100 µM
T28 construct: purchased PRESTO-Tango GPCR kit (Roth lab / Addgene)
In short: as §1

[29] = target: T29, histamine receptor H4 (HRH4) (Homo sapiens, UniProt Q9H3N8); test: PRESTO-Tango GPCR screen and dose-response; settings: for GPCR activation (heatmap value): HRH4, 100 µM; for HRH4 dose-response raw reporter signal (Fig. 5b source data): replicate wells; for EC50: PRESTO-Tango dose-response, n = 3, read-out: EC50 (HRH4 activation)
T29 construct: expressed in transfected cells; host or cells: HTLA cells (HEK293 line stably expressing β-arrestin-TEV and tTA-Luciferase)
T29 sequence (Q9H3N8 whole entry): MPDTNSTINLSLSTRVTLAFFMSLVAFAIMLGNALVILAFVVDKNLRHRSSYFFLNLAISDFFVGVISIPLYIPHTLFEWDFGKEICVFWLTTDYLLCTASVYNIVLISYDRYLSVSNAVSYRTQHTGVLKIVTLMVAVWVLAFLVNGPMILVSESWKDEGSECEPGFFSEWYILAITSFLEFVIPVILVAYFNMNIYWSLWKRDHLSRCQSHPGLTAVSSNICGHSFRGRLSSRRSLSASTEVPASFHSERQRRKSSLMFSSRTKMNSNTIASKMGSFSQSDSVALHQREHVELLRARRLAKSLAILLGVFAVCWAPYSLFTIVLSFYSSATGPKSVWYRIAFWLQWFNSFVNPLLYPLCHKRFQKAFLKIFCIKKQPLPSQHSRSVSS
In short: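 Each receptor was expressed from a Tango plasmid in HTLA cells, which stably carry β-arrestin-TEV and a tTA-driven luciferase reporter. Single-point screening used 100 μM final compound for 20 h, and the signal was normalised to PBS control. Concentration-response testing spanned 10^−4 to 10^−15 M.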

## CC(C)Cc1ncc(CCCCNC(=N)N)[nH]c1=O [3-Homo]
[1]
  GPCR activation (heatmap value): -0.002642
[2]
  GPCR activation (heatmap value): -1.001
[3]
  GPCR activation (heatmap value): 0.4039
[4]
  GPCR activation (heatmap value): 0.09912
[5]
  GPCR activation (heatmap value): -0.1244
[6]
  GPCR activation (heatmap value): 0.4377
[7]
  GPCR activation (heatmap value): -1.019
[8]
  GPCR activation (heatmap value): 1.001
[9]
  GPCR activation (heatmap value): 0.4155
[10]
  GPCR activation (heatmap value): -0.171
[11]
  GPCR activation (heatmap value): -0.09894
[12]
  GPCR activation (heatmap value): -0.8565
[13]
  GPCR activation (heatmap value): 0.4606
[14]
  GPCR activation (heatmap value): -0.2556
[15]
  GPCR activation (heatmap value): 0.4419
[16]
  GPCR activation (heatmap value): -0.286
[17]
  GPCR activation (heatmap value): -0.01288
[18]
  GPCR activation (heatmap value): 0.135
[19]
  GPCR activation (heatmap value): -0.2718
[20]
  GPCR activation (heatmap value): -0.7293
[21]
  GPCR activation (heatmap value): 0.1974
[22]
  GPCR activation (heatmap value): -0.09391
[23]
  GPCR activation (heatmap value): 0.2411
[24]
  GPCR activation (heatmap value): -0.3796
[25]
  GPCR activation (heatmap value): -0.3643
[26]
  GPCR activation (heatmap value): -0.554
[27]
  GPCR activation (heatmap value): -0.4178
[28]
  GPCR activation (heatmap value): 0.05755
[29]
  GPCR activation (heatmap value): 2.481
  EC50: 2.7 µM
[29]; Log(10)Conc (M) -5
  HRH4 dose-response raw reporter signal (Fig. 5b source data): 18151 and 17815
[29]; Log(10)Conc (M) -6
  HRH4 dose-response raw reporter signal (Fig. 5b source data): 6385 and 6598
[29]; Log(10)Conc (M) -7
  HRH4 dose-response raw reporter signal (Fig. 5b source data): 1365 and 1430
[29]; Log(10)Conc (M) -8
  HRH4 dose-response raw reporter signal (Fig. 5b source data): 793 and 758
[29]; Log(10)Conc (M) -9
  HRH4 dose-response raw reporter signal (Fig. 5b source data): 522 and 575
[29]; Log(10)Conc (M) -10
  HRH4 dose-response raw reporter signal (Fig. 5b source data): 463 and 475
[29]; Log(10)Conc (M) -11
  HRH4 dose-response raw reporter signal (Fig. 5b source data): 357 and 469
[29]; Log(10)Conc (M) -12
  HRH4 dose-response raw reporter signal (Fig. 5b source data): 542 and 504
[29]; Log(10)Conc (M) -13
  HRH4 dose-response raw reporter signal (Fig. 5b source data): 404 and 363
[29]; Log(10)Conc (M) -14
  HRH4 dose-response raw reporter signal (Fig. 5b source data): 351 and 360
[29]; Log(10)Conc (M) -15
  HRH4 dose-response raw reporter signal (Fig. 5b source data): 333 and 448

## CC(C)Cc1ncc(CCCNC(=N)N)[nH]c1=O [compound 3]
[1]
  GPCR activation (heatmap value): 0.07678
[2]
  GPCR activation (heatmap value): -2.336
[3]
  GPCR activation (heatmap value): -0.08015
[4]
  GPCR activation (heatmap value): -0.07329
[5]
  GPCR activation (heatmap value): 0.02999
[6]
  GPCR activation (heatmap value): 0.2197
[7]
  GPCR activation (heatmap value): -0.9035
[8]
  GPCR activation (heatmap value): 1.542
[9]
  GPCR activation (heatmap value): -0.2243
[10]
  GPCR activation (heatmap value): -0.7235
[11]
  GPCR activation (heatmap value): -0.2194
[12]
  GPCR activation (heatmap value): -0.3327
[13]
  GPCR activation (heatmap value): -0.2106
[14]
  GPCR activation (heatmap value): 0.3176
[15]
  GPCR activation (heatmap value): -0.03391
[16]
  GPCR activation (heatmap value): -0.6317
[17]
  GPCR activation (heatmap value): 0.2361
[18]
  GPCR activation (heatmap value): 0.01401
[19]
  GPCR activation (heatmap value): -0.4687
[20]
  GPCR activation (heatmap value): -0.2878
[21]
  GPCR activation (heatmap value): -0.3239
[22]
  GPCR activation (heatmap value): -0.1686
[23]
  GPCR activation (heatmap value): -0.01818
[24]
  GPCR activation (heatmap value): -0.2074
[25]
  GPCR activation (heatmap value): 0.3673
[26]
  GPCR activation (heatmap value): -0.2835
[27]
  GPCR activation (heatmap value): -0.6956
[28]
  GPCR activation (heatmap value): 0.09111
[29]
  GPCR activation (heatmap value): 2.217
  EC50: 12.5 µM
[29]; Log(10)Conc (M) -5
  HRH4 dose-response raw reporter signal (Fig. 5b source data): 8773 and 9531
[29]; Log(10)Conc (M) -6
  HRH4 dose-response raw reporter signal (Fig. 5b source data): 1621 and 2108
[29]; Log(10)Conc (M) -7
  HRH4 dose-response raw reporter signal (Fig. 5b source data): 649 and 769
[29]; Log(10)Conc (M) -8
  HRH4 dose-response raw reporter signal (Fig. 5b source data): 454 and 619
[29]; Log(10)Conc (M) -9
  HRH4 dose-response raw reporter signal (Fig. 5b source data): 531 and 542
[29]; Log(10)Conc (M) -10
  HRH4 dose-response raw reporter signal (Fig. 5b source data): 578 and 380
[29]; Log(10)Conc (M) -11
  HRH4 dose-response raw reporter signal (Fig. 5b source data): 348 and 430
[29]; Log(10)Conc (M) -12
  HRH4 dose-response raw reporter signal (Fig. 5b source data): 348 and 454
[29]; Log(10)Conc (M) -13
  HRH4 dose-response raw reporter signal (Fig. 5b source data): 286 and 351
[29]; Log(10)Conc (M) -14
  HRH4 dose-response raw reporter signal (Fig. 5b source data): 262 and 481
[29]; Log(10)Conc (M) -15
  HRH4 dose-response raw reporter signal (Fig. 5b source data): 292 and 283
